In brackets after ≈: the same amount, converted by molar mass. Entries after “also recorded” stand apart in the source; their conditions may differ.
Columns and labels:
Format in all cases: biochemical
[1] = target: hyaluronidase (Bos taurus, UniProt Q2YDK3); assay: Hyaluronidase inhibition test; details: for inhibition at 20 µg/mL: test concentration 20 μg/ml; for inhibition at 20 µg/mL / inhibition at 40 µg/mL / inhibition at 80 µg/mL: read-out: Percent hyaluronidase inhibition (%); for inhibition at 40 µg/mL: test concentration 40 μg/ml; for hyaluronidase inhibitory activity (in words): statement in the text
Experimental: Tests for hyaluronidase inhibition of the extract prepared in Example 2 (hereinafter referred to as the “blue rose petal extract”), the HP-20 column fractions of the blue rose petal extract (60% acetonitrile fractions) and rosadelphin A1 were carried out in accordance with a modified version of the method described by Yumie Maeda et al. in Shokukin Eiseigaku Zasshi (Journal of the Food Hygiene Society of Japan) 31(3), 233-237 (1990). Hyaluronic acid is decomposed by hyaluronidase to give N-acetylhexosamine. To measure the hyaluronidase inhibitory activity, the reducing terminal N-acetylglucosamine was quantified in terms of absorbance due to color development as labeled by p-dimethylaminobenzaldehyde (product of Wako Pure Chemical Industries, Ltd. which is hereinafter abbreviated as p-DAB).
A sample solution (40 μL) in 10% DMSO was mixed with 20 μL of 1000 U/mL hyaluronidase (product of Sigma) dissolved in 0.1 M acetate buffer (pH 4.0) and the mixture was preheated at 37° C. for 20 minutes. To the heated mixture, 40 μL of 0.5 mg/mL Compound 48/80 (product of Sigma) dissolved in the same buffer was added and the resulting mixture was allowed to settle at 37° C. for 20 minutes undisturbed until the hyaluronidase was activated. To the solution, 100 μL of a solution of 0.8 mg/mL potassium hyaluronate was added to give a final concentration of 0.4 mg/mL and reaction was effected at 37° C. for 40 minutes; thereafter, 40 μL of 0.4 N sodium hydroxide in solution was added and the mixture was cooled with ice to quench the reaction. To the reaction mixture, 40 μL of 0.8 M boric acid in solution adjusted to pH 9.1 with 6 N NaOH was added and the resulting mixture was boiled at 100° C. for 3 minutes. The mixture was then cooled to room temperature in ice bath; to the cooled mixture, 1.2 mL of 10 mg/mL p-dimethylaminobenzaldehyde (p-DAB) in solution was added while it was shielded from light and after reaction was effected at 37° C. for 20 minutes, the absorbance at 585 nm (A585) was measured. The hyaluronidase inhibitory activity of the sample was expressed in terms of percent inhibition calculated from the following formula: Percent inhibition (%)={1−(a−b)/(c−d)}×100
a: A585 of the sample solution to which the enzyme was added
b: A585 of the sample solution to which no enzyme was added
c: A585 of the control solution to which the enzyme was added
d: A585 of the control solution to which no enzyme was added.
A positive control was prepared by adding not the sample solution, but 800 μg/ml (1.56 mM as molar concentration) of sodium chromoglycate (product of Sigma which is hereinafter abbreviated as DSCG) in an amount of 40 μL to give a test concentration of 160 μg/ml.

[2] = system: collagenase Type IV; assay: Collagenase inhibition test; details: for collagenase inhibitory activity (in words): statement in the text
Experimental: The blue rose petal extract, fractions thereof as products of treatment on a column (60% acetonitrile fractions), rosadelphin A1, rosacyanin A1, and tellimagrandin 1 were subjected to a collagenase inhibition test in accordance with a modified version of the method described in a document (Wunsch et al., Hoppe Seylers Z Physiol Chem., 333, 149-51 (1963)). For details, see below.
An enzyme solution was prepared by dissolving […] of collagenase Type IV (product of Sigma) in 1 mL of dissolved water to give a concentration of 100 μg/mL (55.1 units/mL) and diluted 50 folds just before use. A substrate solution was prepared by dissolving PZ-peptide (4-phenylazo-benzyloxycarbonyl-Pro-Leu-Gly-Pro-D-Arg-OH) (Pz-Pro-Leu-Gly-Pro-D-Arg-OH; product of Sigma) in a […] calcium chloride containing tris-HCl buffer (pH 7.1) to give a concentration of 0.5 μg/mL. To 20 μL of a solution of sample dissolved in 10% DMSO, 20 μL of the enzyme solution and 160 μL of the substrate solution were added and the mixture was subjected to reaction at 37° C. for 30 minutes. Subsequently, 400 μL of a 25 mM citric acid solution was added to quench the reaction and Pz-Pro-Leu in the reaction mixture was extracted with 2 mL of ethyl acetate. The resulting ethyl acetate layer was measured for absorbance at a wavelength of 320 nm, with ethyl acetate being used as a control. The inhibitory activity of each sample was calculated in terms of the percent inhibition determined by the following formula: Percent collagenase inhibition (%)={1−(a−b)/(c−d)}×100 […]
a: Absorbance after […] reaction in the presence of added sample b: Absorbance after […] reaction in the presence of added sample c: Absorbance after 30 min reaction in the absence of added sample d: Absorbance after 0 min reaction in the absence of added sample.

[3] = target: T1, elastase (Sus scrofa, UniProt P00772); assay: Elastase inhibition test; details: for elastase inhibiting activity (in words): statement in the text
T1 construct: purchased Sigma
Experimental: The blue rose petal extract, fractions thereof as products of treatment on a column (60% acetonitrile fractions), rosadelphin A1, rosacyanin A1, and tellimagrandin 1 were subjected to an elastase inhibition test that was performed by the following method.
An enzyme solution was prepared by dissolving 0.1 ml of elastase (product of Sigma) in 0.2 M Tris buffer at pH 8.0 (hereinafter referred to as a Tris buffer) to give a concentration of 0.05 units/mL and diluted 100 folds just before use. A substrate solution was prepared by dissolving N-Succinyl-Ala-Ala-Ala-p-nitroanilide (product of Sigma) in a Tris buffer to give a concentration of 4 mM. To a 96-well plate, 50 μL of a solution of each sample dissolved in 10% DMSO and 50 μL of the enzyme solution were added and after mixing them with a plate shaker, the resulting mixture was preheated at 25° C. for 10 minutes. Subsequently, 100 μL of the substrate solution was added and after mixing with a plate shaker, reaction was carried out at 25° C. for 30 minutes and immediately thereafter, the liberation of p-nitroaniline was assayed by measuring the absorbance at a wavelength of 405 nm (hereinafter designated as A405). A405 measurement was also performed for a blank of sample solution that was prepared by adding a Tris buffer in place of the substrate solution, as well as for a control solution that was prepared by adding 10% DMSO in place of the sample solution. The inhibitory activity of each sample was calculated in terms of the percent inhibition determined by the following formula: Percent elastase inhibition (%)=[(f−e)−{(b−a)−(d−c)}]/(f−e)×100 […]
a: A405(0 min) of the sample solution for enzymatic reaction b: A405(30 min) of the sample solution for enzymatic reaction c: A405(0 min) of the blank of sample solution d: A405(30 min) of the blank of sample solution e: A405(0 min) of the control solution f: A405(30 min) of the control solution.

[4] = Table 6, test concentration 40 μg/ml
[5] = Table 3, test concentration 80 μg/ml
[6] = Table 8, test concentration 40 μg/mL
[7] = Table 8, test concentration 80 μg/mL
[8] = Table 8, test concentration 160 μg/mL

Sequence of hyaluronidase (Q2YDK3 entry or part of it): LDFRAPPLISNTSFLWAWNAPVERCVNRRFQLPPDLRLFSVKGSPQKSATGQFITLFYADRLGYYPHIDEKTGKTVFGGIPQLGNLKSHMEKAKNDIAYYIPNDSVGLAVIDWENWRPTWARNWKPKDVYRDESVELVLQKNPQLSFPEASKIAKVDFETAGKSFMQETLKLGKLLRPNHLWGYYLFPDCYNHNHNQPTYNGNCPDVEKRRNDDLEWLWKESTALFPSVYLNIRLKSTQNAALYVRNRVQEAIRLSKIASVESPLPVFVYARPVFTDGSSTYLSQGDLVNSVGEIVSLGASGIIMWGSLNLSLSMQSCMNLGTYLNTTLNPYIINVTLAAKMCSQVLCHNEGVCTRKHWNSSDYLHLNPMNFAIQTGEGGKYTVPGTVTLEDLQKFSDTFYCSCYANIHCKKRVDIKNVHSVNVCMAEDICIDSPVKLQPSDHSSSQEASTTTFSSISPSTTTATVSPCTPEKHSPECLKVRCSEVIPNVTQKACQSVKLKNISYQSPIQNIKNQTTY
T1 sequence (P00772 27-266): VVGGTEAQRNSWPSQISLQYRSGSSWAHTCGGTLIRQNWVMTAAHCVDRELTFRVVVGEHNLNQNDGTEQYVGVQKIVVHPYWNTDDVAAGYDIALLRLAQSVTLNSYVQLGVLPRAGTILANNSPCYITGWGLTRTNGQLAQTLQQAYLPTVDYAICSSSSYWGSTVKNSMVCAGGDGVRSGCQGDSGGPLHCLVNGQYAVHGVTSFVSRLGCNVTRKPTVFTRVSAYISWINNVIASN

Structure (SMILES) | Percent collagenase inhibition (%) [2, 4] | inhibition at 20 µg/mL ([1]; Table 3) | inhibition at 40 µg/mL ([1]; Table 3) | inhibition at 80 µg/mL [1, 5] | hyaluronidase inhibitory activity (in words) [1] | collagenase inhibitory activity (in words) [2] | elastase inhibiting activity (in words) [3] | Percent elastase inhibition (%) [3, 6] | Percent elastase inhibition (%) [3, 7] | Percent elastase inhibition (%) [3, 8] | other results
O=C([O-])c1cc(=O)c2c(OCC(O)COc3cccc4oc(C(=O)[O-])cc(=O)c34)cccc2o1.[Na+].[Na+] [DSCG, sodium chromoglycate, reference compound] | – | – | – | – | – | – | – | – | – | – | Percent hyaluronidase inhibition (%) ([1]; Table 3, positive control at 160 μg/ml): * Percent inhibition by 160 μg/ml DSCG: 22.3%
CC(C)CCP(=O)([O-])NCC(=O)N1CCCC1C(=O)NC(C)C(=O)[O-].[K+].[K+] [IP304, isoamylphosphonyl-Glycyl-L-Prolyl-L-Alanine, dipotassium salt, reference compound] | *Percent inhibition by 40 μg/ml IP304: 69.7% | – | – | – | – | – | – | – | – | – | Percent collagenase inhibition (%) ([2]; Table 5, test concentration 80 μg/mL): * Percent inhibition by 80 μg/mL IP304: 84.1%
O=C(OC1C(O)OC2COC(=O)c3cc(Oc4c(-c5ccc(O)c(O)c5)[o+]c5cc(O)cc6c5c4-c4c(C(=O)O)cc(O)c(O)c4O6)c(O)c(O)c3-c3c(cc(O)c(O)c3O)C(=O)OC2C1OC(=O)c1cc(O)c(O)c(O)c1)c1cc(O)c(O)c(O)c1 (centres unmarked) [Rosacyanin A1, rosacyanin A1] | 52.0% | 24.7% | 49.1% | 93.2% | comparable activity to rosadelphin A1 | greater activity than the blue rose petal extract | strong activity | – | – | – | hyaluronidase inhibitory activity (in words) ([1]; listed as rosacyanin A1): strong hyaluronidase inhibitory activity
O=C(OC1C(O)OC2COC(=O)c3cc(Oc4c(-c5cc(O)c(O)c(O)c5)[o+]c5cc(O)cc6c5c4-c4c(C(=O)O)cc(O)c(O)c4O6)c(O)c(O)c3-c3c(cc(O)c(O)c3O)C(=O)OC2C1OC(=O)c1cc(O)c(O)c(O)c1)c1cc(O)c(O)c(O)c1 (centres unmarked) [Rosadelphin A1, rosadelphin A1] | 42.3% | 24.4% | 48.2% | 95.3% | – | greater activity than the blue rose petal extract | comparable or more than comparable activity to rosacyanin A1 | 31.8% | 40.4% | 49.4% | hyaluronidase inhibitory activity (in words) ([1]; listed as rosadelphin A1): strong activity in a concentration dependent manner; also recorded: strong hyaluronidase inhibitory activity; inhibition at 40 µg/mL ([3]; Table 8, test concentration 40 μg/mL, read-out: Percent elastase inhibition (%)): 50.7%; inhibition at 80 µg/mL ([3]; Table 8, test concentration 80 μg/mL, read-out: Percent elastase inhibition (%)): 58.1%; inhibition at 160 µg/mL ([3]; Table 8, test concentration 160 μg/mL, read-out: Percent elastase inhibition (%)): 62%; elastase inhibiting activity (in words) ([3]; listed as rosadelphin A1): strong activity in a concentration dependent manner
O=C(O[C@H]1[C@@H]2OC(=O)c3cc(O)c(O)c(O)c3-c3c(cc(O)c(O)c3O)C(=O)OC[C@H]2OC(O)[C@@H]1OC(=O)c1cc(O)c(O)c(O)c1)c1cc(O)c(O)c(O)c1 (some centres unmarked) [Tellimagrandin 1, tellimagrandin 1, reference compound] | 42.7% | – | – | – | also active, though not so active as rosadelphin A1 | greater activity than the blue rose petal extract | weak activity | 5.9% | 4.6% | 6.5% | IC50 (hyaluronidase inhibition) ([1]; Table 3): 196.5 µg/mL (≈ 250 µM); Percent hyaluronidase inhibition (%) [1, 5]: 64.8%; elastase inhibiting activity (in words) ([3]; listed as tellimagrandin 1): little activity

Source: patent publication US10105313B2, “Uses of rose pigment compounds” (SUNTORY HOLDINGS LIMITED, priority 2014, dated 2018)
